“Also recorded” adds a separate entry of the source. Like-named read-outs stand apart in the source and are kept apart here. [ ]: non-standard residue; d: D form. pGlu = O=C1CC[C@@H](C(=O)O)N1
Key:
[1] = system: FSH release from hemi-anterior pituitaries of adult male rats; assay: FSH release in vitro, incubation with hemi-anterior pituitaries of male rats (RIA); format: cell-based, rat; conditions: for FSH (ng/ml) / FSH: 3 hr incubation
Protocol: (§1) Adult male and female Sprague-Dawley rats (Holtzmann, Madison, Wis.; 200-250 g) were housed two per cage under controlled conditions of temperature (23-25° C.) and lighting (on from 0500 to 1700 hr). The animals had free access to a pellet diet and to tap water.
(§2) After acclimatization for 5 or more days in the vivarium, male rats were killed by decapitation. Following removal of the posterior lobe, the anterior pituitary (AP) was bisected longitudinally, and each AP was incubated in a tube containing 0.5 ml Krebs-Ringer bicarbonate (5 mM ascorbic acid; pH 7.4) buffer (KRB) in an atmosphere of 95% O2/5% CO2 in a Dubnoff shaker (50 cycles per min) for a period of 60 min. Following this pre-incubation period, the APs were incubated for 3 hr in fresh KRB buffer alone (control), or in KRB containing one of various concentrations of synthetic mammalian (m)-LHRH, l-LHRH-III, l-LHRH-I, chicken (c)-LHRH-II, or salmon (s)-LHRH. The medium was then aspirated, and was stored frozen at −20° C. until radio-immunoassays (RIA) for FSH and LH were conducted. FSH and LH were measured using kits supplied by the National Institute of Arthritis Digestive Diabetes and Kidney Disease; hormone values were expressed in terms of NIH-rFSH-RP-2 and NIH-rLH-RP-3 standards. The experiments were repeated twice. The inter- and intra-assay coefficients of variation for FSH assays were 7.5% and 5.2%, respectively; and were 6.5% and 4.8% for LH assays.

[2] = system: LH release from hemi-anterior pituitaries of adult male rats; assay: LH release in vitro, incubation with hemi-anterior pituitaries of male rats (RIA); format: cell-based, rat; conditions: for LH / LH (ng/ml): 3 hr incubation
Protocol: as §1, §2

FSH or LH release = conditions: Yu et al., Brain Res. Bull. 1990; cited from earlier work
plasma FSH = assay: FSH release in vivo, ovariectomized estrogen/progesterone-treated female rats, intravenous injection; set-up: species or system rat; conditions: for Change in FSH from baseline, 10 minutes in post-injection (ng/ml): 10 minutes post-injection, saline −3.85 ± 0.82
Protocol: as §1
(§3) Female rats were ovariectomized under anesthesia with isoflurane 4 weeks prior to the in vivo experiments. Three days before blood sampling, each ovariectomized rat was injected subcutaneously with 50 μg estradiol benzoate (Sigma Chemical Co., St. Louis, Mo.) dissolved in 0.1 ml sesame oil, and 25 mg progesterone (Eli Lilly, Indianapolis, Ind.) dissolved in 0.5 ml sesame oil. One day prior to testing, each animal was implanted with a jugular-atrial catheter. On the morning of testing, polyethylene tubing (PE-50) was connected to the distal end of the jugular-atrial catheter on the rat's dorsum to facilitate blood sampling and intravenous injection. Animals were acclimatized one hour before initial blood samples were taken. Heparinized blood samples ([…]) were collected just before, and at 10, 30, and 60 minutes after injection of 0.5 ml isotonic saline or l-LHRH-III (10 or 100 pmole) in 0.5 ml isotonic saline. After removal of each blood sample, an equal volume of isotonic saline was administered to maintain blood volume.

plasma LH = assay: LH release in vivo, ovariectomized estrogen/progesterone-treated female rats, intravenous injection; set-up: species or system rat; conditions: for Change in LH from baseline, 10 minutes post-injection: saline −0.070 ± 0.122
Protocol: as §1, §3

[3] = system: Petromryzon marinus (lamprey) ovaries; conditions: Sower et al., Endocrinology 1993; cited from earlier work
[4] = system: selective FSH-releasing activity; assay: In vivo screening of known LHRH's from various species for selective FSH-releasing activity; conditions: unpublished data of the applicant's laboratory
Description: Our laboratory also screened known LHRH's from various species for selective FSH-releasing activity; and we also evaluated the activity of 25 analogs of LHRH in in vivo assays.

[5] = Table 2, 10^−5M, KRB control 97.7 ± 20.4
[6] = Table 2, 10^−6M, KRB control 97.7 ± 20.4
[7] = Table 3, 10^−5M, KRB control 139.3 ± 16.9
[8] = Table 3, 10^−6M, KRB control 139.3 ± 16.9
[9] = Table 4, 10^−6M, KRB control 157.5 ± 13.2
[10] = Table 4, 10^−7M, KRB control 157.5 ± 13.2
[11] = Table 4, 10^−8M, KRB control 157.5 ± 13.2
[12] = Table 5, 10^−6M, KRB control 149.3 ± 17.0
[13] = Table 5, 10^−7M, KRB control 149.3 ± 17.0
[14] = Table 5, 10^−8M, KRB control 149.3 ± 17.0
[15] = 10 or 100 pmole intravenous, versus saline control

For “[pGlu]HWSLEWKPG-NH2 [l-LHRH-I, reference compound]”, the “FSH release in vitro (result in words)” value [1] was “small but statistically significant release of FSH; also recorded: minimal potency to release either FSH or LH”, the “FSH (ng/ml)” value [1, 5] was “**178.2 ± 17.0 ng/ml” and the “FSH (ng/ml)” value [1, 6] was “*164.0 ± 29.3 ng/ml”. The “LH release in vitro (result in words)” value [2] was “inactive; also recorded: minimal potency to release either FSH or LH”, the “LH” value [2, 7] was 120.4 ± 8.1 ng/mL and the “LH” value [2, 8] was 134.1 ± 23.2 ng/mL. For the same substance, the “activity in releasing FSH or LH in rats (result in words)” value (FSH or LH release) was “relatively low activity in releasing either FSH or LH”.
With “pGlu-His-Trp-Ser-His-Asp-Trp-Lys-Pro-Gly-NH2 (XHWSHDWKPX; pyroGlu; C-terminal amide) [l-LHRH-III]” the “FSH release in vitro (result in words)” value [1] was “approximately equipotent toward releasing FSH”, the “FSH (ng/ml)” value ([1]; Table 2, 10^−4M, KRB control 97.7 ± 20.4) was “****368.6 ± 40.9 ng/ml” and the “FSH (ng/ml)” value [1, 5] was “**283.0 ± 60.8 ng/ml”. For the same substance, the “FSH (ng/ml)” value [1, 6] was “**278.2 ± 40.9 ng/ml”, the “FSH (ng/ml)” value ([1]; Table 2, 10^−7M, KRB control 97.7 ± 20.4) was “***213.0 ± 17.9 ng/ml” and the “FSH (ng/ml)” value ([1]; Table 2, 10^−8M, KRB control 97.7 ± 20.4) was “**255.7 ± 42.4 ng/ml”. The “FSH (ng/ml)” value ([1]; Table 2, 10^−9M, KRB control 97.7 ± 20.4) was “*228.3 ± 52.5 ng/ml”, the “concentration of maximal effect on FSH release” value ([1]; Table 2 experiment, levelled off through 10^−4 M) was “about 10^−6 M” and the “minimal effective concentration (MEC) for FSH release” value ([1]; Table 2 experiment, lowest concentration tested) was ≤ 10^−9 M. The “FSH” value [1, 9] was 215.0 ± 38.0 ng/mL, the “FSH (ng/ml)” value [1, 10] was “*203.2 ± 16.4 ng/ml” and the “FSH (ng/ml)” value [1, 11] was “*249.3 ± 31.3 ng/ml”. The “FSH” value ([1]; Table 4, 10^−9M, KRB control 157.5 ± 13.2) was 196.3 ± 21.2 ng/mL, the “MEC for a statistically significant release of FSH relative to c-LHRH-II” value ([1]; Table 4 experiment) was “two orders of magnitude lower” and the “LH release in vitro (result in words)” value [2] was “much weaker effect on LH release; also recorded: no LH-releasing activity”. For the same substance, the “LH (ng/ml)” value ([2]; Table 3, 10^−4M, KRB control 139.3 ± 16.9) was “**236.6 ± 19.3 ng/ml”, the “LH (ng/ml)” value [2, 7] was “*202.9 ± 31.2 ng/ml” and the “LH (ng/ml)” value [2, 8] was “*233.6 ± 33.8 ng/ml”. For the same substance, the “LH” value ([2]; Table 3, 10^−7M, KRB control 139.3 ± 16.9) was 179.9 ± 28.4 ng/mL, the “LH” value ([2]; Table 3, 10^−8M, KRB control 139.3 ± 16.9) was 165.7 ± 26.6 ng/mL and the “LH” value ([2]; Table 3, 10^−9M, KRB control 139.3 ± 16.9) was 171.8 ± 27.3 ng/mL. For the same substance, the “concentrations active on LH release” value ([2]; Table 3 experiment) was 10^−6-10^−4 M, the “LH” value [2, 12] was 176.0 ± 9.3 ng/mL and the “LH” value [2, 13] was 182.7 ± 13.7 ng/mL. The “LH” value [2, 14] was 163.2 ± 6.5 ng/mL, the “LH” value ([2]; Table 5, 10^−9M, KRB control 149.3 ± 17.0) was 158.7 ± 10.2 ng/mL and the “Change in FSH from baseline, 10 minutes in post-injection (ng/ml)” value (plasma FSH; 10 pmole intravenous) was “**−0.75 ± 0.37 ng/ml”. For the same substance, the “Change in FSH from baseline, 10 minutes in post-injection (ng/ml)” value (plasma FSH; 100 pmole intravenous) was “**−0.43 ± 0.61 ng/ml”, the “FSH release in vivo (result in words)” value (plasma FSH; [15]) was “increase in FSH in vivo (P<0.01) within ten minutes; also recorded: highly significant increase in plasma FSH 10 minutes after injection, an effect that vanished by 30 minutes post-injection; also recorded: slightly greater effect at 10 minutes that was maintained 30 minutes after injection; also recorded: caused the release of FSH in vivo, but not LH” and the “Change in LH from baseline, 10 minutes post-injection” value (plasma LH; 10 pmole intravenous) was -0.022 ± 0.078 ng/mL. For the same substance, the “Change in LH from baseline, 10 minutes post-injection” value (plasma LH; 100 pmole intravenous) was 0.097 ± 0.077 ng/mL, the “LH release in vivo (result in words)” value (plasma LH; [15]) was “no significant increase in LH; also recorded: Neither the 10 pmole nor the 100 pmole dose of l-LHRH-III produced a statistically significant difference in LH levels” and the “estradiol and progesterone release from lamprey ovaries (result in words)” value [3] was “stimulated estradiol and progesterone release”.
For “pGlu-His-Trp-Ser-His-Gly-Trp-Tyr-Pro-Gly-NH2 (XHWSHGWYPX; HELM PEPTIDE1{[Glp].H.W.S.H.G.W.Y.P.G.[am]}$$$$V2.0; SMILES NC(=O)CNC(=O)[C@@H]1CCCN1C(=O)[C@H](Cc1ccc(O)cc1)NC(=O)[C@H](Cc1c[nH]c2ccccc12)NC(=O)CNC(=O)[C@H](Cc1c[nH]cn1)NC(=O)[C@H](CO)NC(=O)[C@H](Cc1c[nH]c2ccccc12)NC(=O)[C@H](Cc1c[nH]cn1)NC(=O)[C@@H]1CCC(=O)N1) [c-LHRH-II, reference compound]”, the “FSH release in vitro (result in words)” value [1] was “low potency”, the “FSH (ng/ml)” value [1, 9] was “***263.7 ± 17.8 ng/ml” and the “FSH” value [1, 10] was 209.3 ± 44.0 ng/mL. For the same substance, the “FSH” value [1, 11] was 123.7 ± 18.0 ng/mL, the “concentration significantly increasing FSH release” value ([1]; Table 4 experiment, highest concentration tested) was 10^−6 M and the “LH release in vitro (result in words)” value [2] was “equivalent LH-releasing activity to that of m-LHRH”. For the same substance, the “LH (ng/ml)” value [2, 12] was “*239.0 ± 31.7 ng/ml”, the “LH (ng/ml)” value [2, 13] was “*216.3 ± 17.7 ng/ml” and the “LH (ng/ml)” value [2, 14] was “*199.3 ± 13.6 ng/ml”. For the same substance, the “LH release in vitro (result in words)” value ([2]; listed as Chicken (c) LHRH-II) was “stimulated LH release”, the “selectivity for FSH release in vivo (result in words)” value [4] was “slight selectivity for FSH release” and the “selectivity for FSH release in vivo (result in words)” value ([4]; listed as chicken (c) LHRH-II) was “slightly preferential FSH-releasing activity in vivo”.
In the case of “pGlu-His-Trp-Ser-Tyr-Gly-Trp-Leu-Pro-Gly-NH2 (XHWSYGWLPX; HELM PEPTIDE1{[Glp].H.W.S.Y.G.W.L.P.G.[am]}$$$$V2.0; SMILES CC(C)C[C@H](NC(=O)[C@H](Cc1c[nH]c2ccccc12)NC(=O)CNC(=O)[C@H](Cc1ccc(O)cc1)NC(=O)[C@H](CO)NC(=O)[C@H](Cc1c[nH]c2ccccc12)NC(=O)[C@H](Cc1c[nH]cn1)NC(=O)[C@@H]1CCC(=O)N1)C(=O)N1CCC[C@H]1C(=O)NCC(N)=O) [s-LHRH, reference compound]”, the “FSH” value [1, 9] is reported as 203.2 ± 39.2 ng/mL, the “FSH (ng/ml)” value [1, 10] is reported as “*233.0 ± 37.4 ng/ml” and the “FSH release in vitro (result in words)” value ([1]; listed as Salmon (s)-LHRH) is reported as “stimulated the release of both FSH and LH”. The “FSH release in vitro (result in words)” value ([1]; listed as Salmon LHRH) was “low potency”, the “LH release in vitro (result in words)” value [2] was “stimulated the release of both FSH and LH” and the “LH” value [2, 12] was 186.2 ± 13.6 ng/mL. The “LH (ng/ml)” value [2, 13] was “*230.8 ± 38.8 ng/ml”.

Reference: US6407205B1, “FSH-releasing peptides” (Board of Supervisors of Louisiana State University and …, priority 1997, dated 2002)
